For 7 molecules, MIC and IC50 results are on record in PMC10647704 (Molecules, 2023).

For orientation: IC50 means the concentration that gives 50% inhibition.

≈ marks a conversion by molar mass, not a printed value. Read-outs that look alike come from different tables or passages of the source.

The test system of experiment [1] is C. albicans S2 (FLU-resistant). Put plainly: microbe, parasite or virus in culture. Format: cell-based. Particulars: read-out: MIC, colorimetric assay.
The test system of experiment [2] is C. albicans S2 (FLU-resistant). Put plainly: microbe, parasite or virus in culture. Format: cell-based.
[3] abbreviates: Candida albicans, 24 h, read-out: MIC, turbidity assay.
The mark [4] stands for this setting: Candida albicans, 48 h, read-out: MIC, turbidity assay.
The mark [5] stands for this setting: Candida albicans, 48 h, read-out: Turbidity Assay IC50 C. albicans S2.

Take `CC1(C)C2CCC(Cn3[se]c4ccccc4c3=O)C1C2` (single isomer, unassigned; (-)) [CHB3]: the MIC is 25 µM (≈ 8.36 µg/mL) in experiment [1] (Candida albicans, 24 h); 25 µM (≈ 8.36 µg/mL) in experiment [1] (Candida albicans, 48 h); 50 µM (≈ 16.7 µg/mL) in experiment [2] (setting [3]); 25 µM (≈ 8.36 µg/mL) in experiment [2] (setting [4]). Also, the IC50 in experiment [2] (setting [5]) stood at 15.1 ± 0.2 µM.

In the case of `C[C@H]1CC[C@@H]2[C@H]([C@@H]1n1[se]c3ccccc3c1=O)C2(C)C` [CHB4], the MIC in experiment [1] (Candida albicans, 24 h) amounted to 3.1 µM (≈ 1.04 µg/mL); in experiment [1] (Candida albicans, 48 h), 3.1 µM (≈ 1.04 µg/mL); in experiment [2] (setting [3]), 3.1 µM (≈ 1.04 µg/mL); in experiment [2] (setting [4]), 3.1 µM (≈ 1.04 µg/mL). Moreover, the IC50 in experiment [2] (setting [5]) worked out at 1.8 ± 0.1 µM.

Turning to `CC(C)[C@@H]1CC[C@@H](C)C[C@H]1n1[se]c2ccccc2c1=O` [CHB6, (−)-N-(1R,2S,5R)-menthyl-1,2-benzizoselenazol-3(2H)-one], the MIC worked out at 6.3 µM (≈ 2.12 µg/mL) in experiment [1] (Candida albicans, 24 h); 6.3 µM (≈ 2.12 µg/mL) in experiment [1] (Candida albicans, 48 h); 3.1 µM (≈ 1.04 µg/mL) in experiment [2] (setting [3]); 3.1 µM (≈ 1.04 µg/mL) in experiment [2] (setting [4]). Moreover, in experiment [2] (setting [5]), the IC50 came out at 1.8 ± 0.1 µM.

Consider `C[C@@H]1[C@@H](n2[se]c3ccccc3c2=O)C[C@H]2C[C@@H]1C2(C)C` [CHB1], for which the MIC in experiment [2] (setting [3]) and in experiment [2] (setting [4]) was 3.1 µM (≈ 1.04 µg/mL) in each case. Moreover, the IC50 in experiment [2] (setting [5]) is 1.8 ± 0.1 µM.

For `C[C@H]1[C@H](n2[se]c3ccccc3c2=O)C[C@@H]2C[C@H]1C2(C)C` [CHB2], the MIC in experiment [1] (Candida albicans, 24 h) stood at 6.3 µM (≈ 2.11 µg/mL); in experiment [1] (Candida albicans, 48 h), 3.1 µM (≈ 1.04 µg/mL). The IC50 in experiment [2] (setting [5]) is 6.2 ± 0.1 µM.

Take `C[C@@H]1C[C@H]2[C@@H](C[C@H]1n1[se]c3ccccc3c1=O)C2(C)C` [CHB5]: the IC50 in experiment [2] (setting [5]) amounted to 14.4 ± 0.5 µM.

As to `O=c1c2ccccc2[se]n1-c1ccccc1` [EB, Ebselen, reference compound], the MIC stood at 25.0 µM (≈ 6.85 µg/mL) in experiment [1] (C. albicans S2, 24 h, resazurin); 25.0 µM (≈ 6.85 µg/mL) in experiment [1] (C. albicans S2, 48 h, resazurin); 25 µM (≈ 6.85 µg/mL) in experiment [1] (Candida albicans, C. albicans S2, 24 h, resazurin); 25 µM (≈ 6.85 µg/mL) in experiment [1] (Candida albicans, C. albicans S2, 48 h, resazurin); 25.0 µM (≈ 6.85 µg/mL) in experiment [2] (C. albicans S2, 24 h; for FLU the lowest concentration causing 70% decrease in turbidity; read-out: MIC, turbidity assay); 25.0 µM (≈ 6.85 µg/mL) in experiment [2] (C. albicans S2, 48 h; for FLU the lowest concentration causing 70% decrease in turbidity; read-out: MIC, turbidity assay). Moreover, the MIC came to 25 µM (≈ 6.85 µg/mL) in experiment [2] (Candida albicans, 24 h; read-out: MIC, turbidity assay) and 25 µM (≈ 6.85 µg/mL) in experiment [2] (Candida albicans, 48 h; read-out: MIC, turbidity assay). Also, the IC50 in experiment [2] (Abs600nm at 48 h; read-out: Turbidity Assay IC50 C. albicans S2) is 14.3 ± 0.46 µM; in experiment [2] (Candida albicans, 48 h, Abs600nm at 48 h; read-out: Turbidity Assay IC50 C. albicans S2), about 14 µM.
